From ChEMBL document CHEMBL4346704, “Novel symmetric bis-benzimidazoles: Synthesis, DNA/RNA binding and antitrypanosomal activity” (Eur J Med Chem, 2019)
The source made the active and inactive calls. No cut-off for these calls is given here.

How the values were obtained:
Trypanosoma brucei = test: Antitrypanosomal activity against Trypanosoma brucei 221 incubated for 48 hrs by resazurin based fluorescence assay; type: functional, organism-based; conditions: Trypanosoma brucei, 221, 48 h
[1] = Ratio of compound concentration to polynucleotide phosphate concentration for binding affinity to polyA-polyU dsRNA (unknown origin); type: nucleic-acid assay
Calf thymus DNA [2] = test: Binding affinity to calf thymus DNA assessed as conformational change by circular dichroism analysis; type: nucleic-acid assay; conditions: Bos taurus
[3] = tested on: Poly(dA-dU)oligonucleotide; test: Binding affinity to polyA-polyU dsRNA (unknown origin) assessed as change in melting temperature at 0.3 ratio of compound to RNA by spectrophotometric analysis; type: nucleic-acid assay
Calf thymus DNA [4] = test: Binding affinity to calf thymus DNA assessed as change in melting temperature at compound to calf thymus DNA polynucleotide ratio of 0.5 by spectrophotometric analysis; type: nucleic-acid assay; conditions: Bos taurus
Calf thymus DNA [5] = test: Binding affinity to calf thymus DNA assessed as change in melting temperature at compound to calf thymus DNA polynucleotide ratio of 0.3 by spectrophotometric analysis; type: nucleic-acid assay; conditions: Bos taurus
L6 = test: Cytotoxicity against rat L6 cells incubated for 6 days by resazurin based fluorescence assay; type: cell-based; conditions: L6, 144 h
[6] = tested on: Poly(dA-dU)oligonucleotide; test: Binding affinity to polyA-polyU dsRNA (unknown origin) assessed as change in melting temperature at 0.5 ratio of compound to RNA by spectrophotometric analysis; type: nucleic-acid assay
Calf thymus DNA [7] = test: Binding affinity to calf thymus DNA assessed as change in melting temperature at compound to calf thymus DNA polynucleotide ratio of 0.1 by spectrophotometric analysis; type: nucleic-acid assay; conditions: Bos taurus
Calf thymus DNA [8] = test: Ratio of compound concentration to polynucleotide phosphate concentration for binding affinity to calf thymus DNA; type: nucleic-acid assay; conditions: Bos taurus
Calf thymus DNA [9] = test: Binding affinity to calf thymus DNA assessed as hypochromic effect by UV-vis spectrophotometric method relative to control; type: nucleic-acid assay; design: concentration or dose not given beside the values; conditions: Bos taurus
[10] = Binding affinity to polyA-polyU dsRNA (unknown origin) assessed as change in melting temperature at 0.1 ratio of compound to RNA by spectrophotometric analysis; type: nucleic-acid assay
[11] = Binding affinity to polyA-polyU dsRNA (unknown origin) assessed as hypochromic effect by UV-vis spectrophotometric method relative to control; type: nucleic-acid assay; design: concentration or dose not given beside the values
[12] = tested on: Poly(dA-dU)oligonucleotide; test: Binding affinity to polyA-polyU dsRNA (unknown origin) assessed as binding constant by UV-vis spectrophotometric method; type: nucleic-acid assay
Calf thymus DNA [13] = test: Binding affinity to calf thymus DNA by UV-vis spectrophotometric method; type: nucleic-acid assay; conditions: Bos taurus
[14] = tested on: Poly(dA-dU)oligonucleotide; test: Binding affinity to polyA-polyU dsRNA (unknown origin) assessed as conformational change by circular dichroism analysis; type: nucleic-acid assay

Row | Compound | IC50 (Trypanosoma brucei) [µM] | IC90 (Trypanosoma brucei) [µM] | Ratio [1] | Activity (Calf thymus DNA [2]) | ΔTm [3] [°C] | ΔTm (Calf thymus DNA [4]) [°C] | ΔTm (Calf thymus DNA [5]) [°C] | IC50 (L6) [µM] | ΔTm [6] [°C] | ΔTm (Calf thymus DNA [7]) [°C] | Ratio (Calf thymus DNA [8]) | Activity (Calf thymus DNA [9]) [%] | ΔTm [10] [°C] | Activity [11] [%] | log Ks [12] | log Ks (Calf thymus DNA [13]) | Activity [14]
1 | Cl.Cl.N=C(N)c1ccc2[nH]c(-c3ccc(Cn4cc(CCCc5cn(Cc6ccc(-c7nc8cc(C(=N)N)ccc8[nH]7)o6)nn5)nn4)o3)nc2c1 | 3.6 | 5.5 | 0.3 | Active | 0.6 | 13.8 | 13 | 198 | 9.3 | 13.6 | 0.05 | 13 | 1.5 | 46 | 5.7 | 6.61 | 
2 | Cl.Cl.N=C(N)c1ccc2[nH]c(-c3ccc(Cn4cc(COCc5cn(Cc6ccc(-c7nc8cc(C(=N)N)ccc8[nH]7)o6)nn5)nn4)o3)nc2c1 | 3.3 | 4.7 | 0.43 | Active | 3.5 | 12.5 | 10.4 | 88.6 | 3.3 | 9.2 | 0.47 | 37 | 2.2 | 24 | 6.65 | 5.93 | 
3 | N=C(N)c1ccc2[nH]c(-c3ccc(Cn4cc(COc5ccc(-c6ccc(OCc7cn(Cc8ccc(-c9nc%10cc(C(=N)N)ccc%10[nH]9)o8)nn7)cc6)cc5)nn4)o3)nc2c1 | > 10 |  |  | Active | 0.9 |  |  |  |  |  |  | 8 |  | < 5 |  |  | Active
4 | c1ccc2[nH]c(-c3ccc(Cn4cc(COc5ccc(-c6ccc(OCc7cn(Cc8ccc(-c9nc%10ccccc%10[nH]9)o8)nn7)cc6)cc5)nn4)o3)nc2c1 | > 10 |  |  | inactive | 0 |  | 0 |  |  |  | 0.3 | 14 |  | 12 |  | 4 | 
5 | CC(C)NC(=N)c1ccc2[nH]c(-c3ccc(Cn4cc(CCCc5cn(Cc6ccc(-c7nc8cc(C(=N)NC(C)C)ccc8[nH]7)o6)nn5)nn4)o3)nc2c1.Cl.Cl | 5.1 | 8.2 | 0.58 | Active | 0.5 | 14.8 | 14.5 | 104 | 0.8 | 13.8 | 0.09 | 24 | 0.9 | 32 | 5.69 | 6.33 | 
6 | Fc1ccc2[nH]c(-c3ccc(Cn4cc(CCCc5cn(Cc6ccc(-c7nc8cc(F)ccc8[nH]7)o6)nn5)nn4)o3)nc2c1 | 4 | 8.9 | 0.5 | inactive | 1.3 | 2 | 1.3 | 221 | 2 | 0.8 | 0.15 | 46 | 0.8 | 31 | 4.94 | 6.56 | 
7 | Clc1ccc2[nH]c(-c3ccc(Cn4cc(COc5ccc(OCc6cn(Cc7ccc(-c8nc9cc(Cl)ccc9[nH]8)o7)nn6)cc5)nn4)o3)nc2c1 | 1.4 | 2.5 |  | inactive | 0 | 2 | 1.5 | > 270 | 0 | 0.7 | 0.65 | 27 | 0 | 7 |  | 6.33 | 
8 | c1ccc2[nH]c(-c3ccc(Cn4cc(COc5ccc(OCc6cn(Cc7ccc(-c8nc9ccccc9[nH]8)o7)nn6)cc5)nn4)o3)nc2c1 | > 15 |  | 0.3 | inactive | 0 | 2.6 | 3.2 |  | 0 | 2.8 | 0.1 | 35 | 0 | 22 | 5.5 | 6.18 | 
9 | Clc1ccc2[nH]c(-c3ccc(Cn4cc(COc5ccc(-c6ccc(OCc7cn(Cc8ccc(-c9nc%10cc(Cl)ccc%10[nH]9)o8)nn7)cc6)cc5)nn4)o3)nc2c1 | 0.37 | 9.7 |  | inactive | 0 |  | 0 | 30.4 |  |  | 0.3 | 16 |  | 15 |  | 4 | 
